Data taken from ChEMBL document CHEMBL1201862, “PubChem BioAssay data set” (2004).
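1) Cells in 96-well plates. 2) Compound, 48 h, 5 concentrations. 3) Linear interpolation between surrounding doses. 4) Unreached endpoint = highest concentration. GI50 = concentration required for 50% inhibition of growth.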 Calls of active or inactive are those of the source. No stated cut-off is given here; in the data, active = GI50 up to about 1.1 µM and inactive = higher.

What was measured:
Test in all cases: NCI anticancer screen, dose series, 48 h
NCI-H226 = tested on: NCI-H226
HCT-15 = tested on: HCT-15
NCI-H460 = tested on: NCI-H460
EKVX = tested on: EKVX
OVCAR-8 = tested on: OVCAR-8
SF-268 = tested on: SF-268
SNB-75 = tested on: SNB-75
NCI-H23 = tested on: NCI-H23
A549 = tested on: A549
OVCAR-3 = tested on: OVCAR-3
MDA-MB-231 = tested on: MDA-MB-231
RXF 393 = tested on: RXF 393
HCT-116 = tested on: HCT-116
SK-MEL-2 = tested on: SK-MEL-2
PC-3 = tested on: PC-3
SK-MEL-28 = tested on: SK-MEL-28
UO-31 = tested on: UO-31
K562 = tested on: K562
HL-60 = tested on: HL-60
Malme-3M = tested on: Malme-3M

SMILES	GI50 (NCI-H226)	GI50 (HCT-15)	GI50 (NCI-H460)	GI50 (EKVX)	GI50 (OVCAR-8)	GI50 (SF-268)	GI50 (SNB-75)	GI50 (NCI-H23)	GI50 (A549)	GI50 (OVCAR-3)	GI50 (MDA-MB-231)	GI50 (RXF 393)	GI50 (HCT-116)	GI50 (SK-MEL-2)	GI50 (PC-3)	GI50 (SK-MEL-28)	GI50 (UO-31)	GI50 (K562)	GI50 (HL-60)	GI50 (Malme-3M)
OC[C@@H](O)[C@H](O)[C@H](O)[C@@H](O)C1SCCCS1	> 100 µM (inactive)	> 100 µM	> 100 µM (inactive)	> 100 µM (inactive)	> 100 µM (inactive)	> 100 µM (inactive)	> 100 µM (inactive)	> 100 µM (inactive)	> 100 µM (inactive)	> 100 µM (inactive)	> 100 µM (inactive)	> 100 µM (inactive)	> 100 µM (inactive)	> 100 µM (inactive)	> 100 µM (inactive)	> 100 µM (inactive)	> 100 µM (inactive)	–	–	–
O=C(Nn1cnn2c(=O)c3ccccc3nc2c1=O)c1ccccc1	> 100 µM (inactive)	> 100 µM	> 100 µM (inactive)	> 100 µM (inactive)	> 100 µM (inactive)	> 100 µM (inactive)	> 100 µM (inactive)	> 100 µM (inactive)	> 100 µM (inactive)	> 100 µM (inactive)	> 100 µM (inactive)	–	> 100 µM (inactive)	> 100 µM (inactive)	> 100 µM (inactive)	> 100 µM (inactive)	> 100 µM (inactive)	> 100 µM (inactive)	> 100 µM (inactive)	> 100 µM (inactive)
COC(=O)/C(C)=N/N=C(\S)SC	> 100 µM (inactive)	36.7 µM	26.9 µM (inactive)	> 100 µM (inactive)	36.4 µM (inactive)	21.8 µM (inactive)	–	45.6 µM (inactive)	–	24.8 µM (inactive)	46.6 µM (inactive)	16.7 µM (inactive)	31.6 µM (inactive)	31 µM (inactive)	36.5 µM (inactive)	44.5 µM (inactive)	36.7 µM (inactive)	75 µM (inactive)	0.105 µM (active)	–
CC1(C)CC[C@]2(C(=O)O)CC[C@]3(C)C(=CC[C@@H]4[C@@]5(C)C[C@H](O)[C@H](O)[C@@](C)(CO)C5=CC[C@]43C)[C@@H]2C1	–	40.7 µM	21.3 µM (inactive)	53.2 µM (inactive)	37.2 µM (inactive)	43.1 µM (inactive)	32.1 µM (inactive)	46.8 µM (inactive)	28.8 µM (inactive)	> 100 µM (inactive)	> 100 µM (inactive)	–	32.5 µM (inactive)	> 100 µM (inactive)	67.9 µM (inactive)	> 100 µM (inactive)	39.3 µM (inactive)	50 µM (inactive)	> 100 µM (inactive)	> 100 µM (inactive)
COC(=O)/C=c1/c2ccccc2n2nc3ccccc3c12	–	77.1 µM	43.9 µM (inactive)	> 100 µM (inactive)	> 100 µM (inactive)	49.9 µM (inactive)	–	66.5 µM (inactive)	65.9 µM (inactive)	> 100 µM (inactive)	16.4 µM (inactive)	34 µM (inactive)	22.8 µM (inactive)	74.6 µM (inactive)	> 100 µM (inactive)	> 100 µM (inactive)	62.2 µM (inactive)	51.4 µM (inactive)	45 µM (inactive)	99.1 µM (inactive)
COc1ccc(S(=O)(=O)NC(CCC(=O)NC(N)=O)C(=O)NC(N)=O)cc1 (stereo not given)	> 100 µM (inactive)	> 100 µM	> 100 µM (inactive)	> 100 µM (inactive)	> 100 µM (inactive)	–	> 100 µM (inactive)	> 100 µM (inactive)	> 100 µM (inactive)	> 100 µM (inactive)	> 100 µM (inactive)	–	> 100 µM (inactive)	> 100 µM (inactive)	> 100 µM (inactive)	> 100 µM (inactive)	> 100 µM (inactive)	> 100 µM (inactive)	74.5 µM (inactive)	> 100 µM (inactive)
COc1ccccc1NS(=O)(=O)c1ccc2ncn(NS(=O)(=O)c3ccc(Cl)cc3)c(=O)c2c1	> 100 µM (inactive)	> 100 µM	> 100 µM (inactive)	> 100 µM (inactive)	> 100 µM (inactive)	> 100 µM (inactive)	> 100 µM (inactive)	> 100 µM (inactive)	75 µM (inactive)	> 100 µM (inactive)	> 100 µM (inactive)	–	> 100 µM (inactive)	45.2 µM (inactive)	5.51 µM (inactive)	> 100 µM (inactive)	35.2 µM (inactive)	3.36 µM (inactive)	85.7 µM (inactive)	> 100 µM (inactive)
[N-]=[N+]=Nc1c(C=O)c(=O)n(-c2ccccc2)c2ccccc12	–	18.4 µM	29.6 µM (inactive)	–	–	47.8 µM (inactive)	24.8 µM (inactive)	16.8 µM (inactive)	39.3 µM (inactive)	16.1 µM (inactive)	40.3 µM (inactive)	12.1 µM (inactive)	> 10 µM (inactive)	29.2 µM (inactive)	14.4 µM (inactive)	16.9 µM (inactive)	16.2 µM (inactive)	3.89 µM (inactive)	52.4 µM (inactive)	15.6 µM (inactive)
N=c1c2c(-c3ccccc3)c[nH]c2ncn1N	> 100 µM (inactive)	> 100 µM	–	> 100 µM (inactive)	> 100 µM (inactive)	–	> 100 µM (inactive)	> 100 µM (inactive)	> 100 µM (inactive)	> 100 µM (inactive)	> 100 µM (inactive)	–	> 100 µM (inactive)	> 100 µM (inactive)	> 100 µM (inactive)	> 100 µM (inactive)	> 100 µM (inactive)	> 100 µM (inactive)	> 100 µM (inactive)	–
Cc1ccc(-c2cc(C(F)(F)F)nn2-c2ccc(S(N)(=O)=O)cc2)cc1 [CELECOXIB]	–	15.9 µM	15.8 µM (inactive)	17.9 µM (inactive)	19.7 µM (inactive)	16.9 µM (inactive)	15.6 µM (inactive)	17.1 µM (inactive)	14.4 µM (inactive)	17.6 µM (inactive)	15.6 µM (inactive)	17.1 µM (inactive)	55 µM (inactive)	16.1 µM (inactive)	13.4 µM (inactive)	17.6 µM (inactive)	14.8 µM (inactive)	10.1 µM (inactive)	14.8 µM (inactive)	18.6 µM (inactive)
Oc1ccc(/C=C/c2ccc3cccc(O)c3n2)cc1O	–	3.29 µM	3.11 µM (inactive)	6.11 µM (inactive)	5.86 µM (inactive)	6.5 µM (inactive)	4.74 µM (inactive)	–	4.23 µM (inactive)	10.9 µM (inactive)	23 µM (inactive)	3.24 µM (inactive)	3.77 µM (inactive)	11.9 µM (inactive)	15.6 µM (inactive)	13 µM (inactive)	2.74 µM (inactive)	3.69 µM (inactive)	1.96 µM (inactive)	–
